Experimental data: patent US20180284095A1, “BIOMARKERS ASSOCIATED WITH LSD1 INHIBITORS AND USES THEREOF” (Oryzon Genomics, S.A., priority 2015, published 2018)

Columns and labels:
[1] = target: T1, Human recombinant monoamine oxidase MAO-B (Homo sapiens, UniProt P27338); test: MAO-B fluorescence-based kynuramine assay; type: biochemical
T1 construct: purchased Sigma Aldrich
T1 sequence (P27338 1-520): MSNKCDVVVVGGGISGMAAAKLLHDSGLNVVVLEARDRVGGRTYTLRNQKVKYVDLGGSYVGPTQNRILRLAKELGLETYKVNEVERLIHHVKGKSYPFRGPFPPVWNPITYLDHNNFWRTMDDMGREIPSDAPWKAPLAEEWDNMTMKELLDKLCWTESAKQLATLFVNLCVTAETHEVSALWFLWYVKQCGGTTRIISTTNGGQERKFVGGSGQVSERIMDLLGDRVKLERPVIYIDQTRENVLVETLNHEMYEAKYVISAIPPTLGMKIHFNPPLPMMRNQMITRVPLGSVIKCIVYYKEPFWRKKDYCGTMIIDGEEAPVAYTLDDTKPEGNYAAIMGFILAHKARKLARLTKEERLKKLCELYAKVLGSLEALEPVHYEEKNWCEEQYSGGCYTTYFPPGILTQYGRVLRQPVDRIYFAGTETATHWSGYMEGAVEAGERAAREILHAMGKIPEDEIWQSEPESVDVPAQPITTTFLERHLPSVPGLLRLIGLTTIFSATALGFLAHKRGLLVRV
Text: MAOs catalyze the oxidative deamination of primary, secondary and tertiary amines. In order to monitor MAO enzymatic activities and/or their inhibition rate by inhibitor(s) of interest, a fluorescence-based (inhibitor)-screening assay was set up. 3-(2-Aminophenyl)-3-oxopropanamine (kynuramine dihydrobromide, Sigma Aldrich), a non fluorescent compound was chosen as a substrate. Kynuramine is a non-specific substrate for both MAO-A and MAO-B activities. While undergoing oxidative deamination by MAO activities, kynuramine is converted into 4-hydroxyquinoline (4-HQ), a resulting fluorescent product.
The monoamine oxidase activity was estimated by measuring the conversion of kynuramine into 4-hydroxyquinoline. Assays were conducted in 96-well black plates with clear bottom (Corning) in a final volume of 100 μL. […]
After leaving the enzyme(s) interacting with the inhibitor, KM of kynuramine was added to each reaction for MAO-B and MAO-A assay respectively, and the reaction was left for 1 hour at 37° C. in the dark. […] The conversion of kynuramine to 4-hydroxyquinoline, was monitored by fluorescence (excitation at 320 nm, emission at 360 nm) using a microplate reader (Infinite 200, Tecan). Arbitrary units were used to measure levels of fluorescence produced in the absence and/or in the presence of inhibitor.
The IC50 values of each inhibitor were calculated with GraphPad Prism Software.

[2] = test system: TUBB2C; test: Microarray gene expression, brain of Hsd:ICR (CD1) mice, MTD study (Example 6), housekeeping gene; type: in vivo, mouse; conditions: brain day 5, male CD1 mice pool
Method: (§1) Total RNA was extracted from samples using the RNeasy extraction kit (Qiagen). The quality and concentration of the RNA was analyzed using the Agilent 2100 bioanalyzer and NanoDrop™ ND-1000 (Thermo Scientific). Samples with RNA integrity number (RIN)<6.0 were discarded. Total RNA (0.5 μg) amplification and labelling with Cy3 or Cy5 was carried out using the Eberwein mRNA amplification procedure (Van Gelder et al, Proc Natl Acad Sci USA 1990, 87:1663-1667) employing the MessageAmp™ aRNA amplification kit from Ambion (Applied Biosystems) following the manufacturer's instructions with minor modifications. As hybridization controls, plant mRNAs were transcribed from a plasmid containing the Zea mays Xet (xyloglucan endo-transglycosylase) cDNA and from a plasmid containing the Zea mays Zmmyb42 cDNA, independently prepared Cy3 and Cy5 labelled aRNA from these two RNAs using the Eberwein mRNA amplification procedure (as disclosed in Cerdà et al, Gen Comp Endocrinol 2008, 156:470-481).
(§2) The Cy3- and Cy5-labelled cRNAs and spikes were combined and hybridized to the microarray described in Example 2.6 for 17 h at 60° C. using Agilent's gaskets G2534-60002, G2534A hybridization chambers and DNA Hybridization Oven G2545A, according to the manufacturer's instructions. More specifically, equal amounts of Cy3 and Cy5 labeled Xet aRNA as well as equal amounts of Cy3 and Cy5 labeled Zmmyb42 aRNA were spiked into each mixture hybridized to the array. Arrays were washed and raw data were obtained using Agilent's DNA Microarray Scanner G2505B and Feature Extraction software (v10.1). The raw fluorescence intensity data were processed using applicant's proprietary software, and consists in the following operations:
(§3) Data normalization was carried out by an improved version of the nonlinear Q-splines normalization method (Workman et al., Genome Biol 2002, 3(9):research0048.1-0048.16). Normalization results were presented graphically as MA plots, as first described by Dudoit et al (Dudoit et al, Statistica Sinica, 2002, 12:111-139). Each point corresponds to a probe of the DNA array. M values (vertical axis) are the log-differential expression ratios. A values (horizontal axis) are the log-intensities of the spots. M and A are calculated from the Cy5 and Cy3 intensity values as of each spot. The DNA Array data is normalized using an improved version of non-linear Q-Splines normalization described by Workman et al., Genome Biol 2002, 3(9):research0048.1-0048.16. This process is useful to correct the deviation of the M values from the statistical assumption that most of the spots have M=0 in MA plots. […]. The data used to calculate the normalization fitting curve is the totality of the raw measurement dataset, excluding the signals for the probes for the spiked-in plant RNA controls and negative controls. In order to be able to normalize properly the data among all the experiments, the probe-set must include an important group of genes that should have no change (M=0) in the experiment. The normalization function is then applied to all the data, including controls.
(§4) Normalized and log-transformed data were used to calculate log 2 (sample/control) and Fold Change (FC) values. No background subtraction was applied to the signal intensity values during data processing, permitting robust selection of differentially expressed genes with low expression levels at the cost of potential sub-estimation of change when intensity levels are close to the array background level.
(§5) Male Hsd:ICR (CD1®) mice were maintained in air- and temperature-controlled cages with regular supply of water and food. A maximum of 3 mice were raised per cage. Three mice were assigned to each group. Before the first administration, each mouse was labeled and weighed. Test compounds were administered orally using 1 ml syringes using animal feeding needles proper for mice at 10 ml/kg as follows. […]

[3] = test system: TUBB3; test: as above; type: in vivo, mouse; conditions: brain day 5, male CD1 mice pool
Method: as §1, §2, §3, §4, §5

[4] = 3 mg/kg oral x5 days vs vehicle
[5] = 10 mg/kg oral x5 days vs vehicle
[6] = 30 mg/kg oral x5 days vs vehicle
[7] = 100 mg/kg oral x5 days vs vehicle

Row | Compound | IC50 [1] [µM] | Hybridization signal sample_Cy5 TUBB2C ([2]; 3 mg/kg oral x5 days) | log2 (sample/control) TUBB2C [2, 4] | Hybridization signal sample_Cy5 TUBB2C ([2]; 10 mg/kg oral x5 days) | log2 (sample/control) TUBB2C [2, 5] | Hybridization signal sample_Cy5 TUBB2C ([2]; 30 mg/kg oral x5 days) | log2 (sample/control) TUBB2C [2, 6] | Hybridization signal sample_Cy5 TUBB2C ([2]; 100 mg/kg oral x5 days) | log2 (sample/control) TUBB2C [2, 7] | Hybridization signal sample_Cy5 TUBB3 ([3]; 3 mg/kg oral x5 days) | log2 (sample/control) TUBB3 [3, 4] | Hybridization signal sample_Cy5 TUBB3 ([3]; 10 mg/kg oral x5 days) | log2 (sample/control) TUBB3 [3, 5] | Hybridization signal sample_Cy5 TUBB3 ([3]; 30 mg/kg oral x5 days) | log2 (sample/control) TUBB3 [3, 6] | Hybridization signal sample_Cy5 TUBB3 ([3]; 100 mg/kg oral x5 days) | log2 (sample/control) TUBB3 [3, 7]
1 | NC(=O)CN[C@H]1C[C@@H]1c1ccc(OCc2ccccc2)cc1 (racemic) [Compound 3, 2-(((trans)-2-(4-(benzyloxy)phenyl)cyclopropyl)amino)acetamide] | 0.07 | – | – | – | – | – | – | – | – | – | – | – | – | – | – | – | –
2 | N[C@H]1CCN(CCN[C@H]2C[C@@H]2c2ccc(-c3cccc(C(F)(F)F)c3)cc2)C1 (racemic) [Compound 5, (S)-1-(2-(((trans)-2-(3′-(trifluoromethyl)-[1,1′-biphenyl]-4-yl)cyclopropyl)amino)ethyl)pyrrolidin-3-amine] | 5.1 | – | – | – | – | – | – | – | – | – | – | – | – | – | – | – | –
3 | (+) 5-((((trans)-2-(4-(benzyloxy)phenyl)cyclopropyl)amino)methyl)-1,3,4-oxadiazol-2-amine [Compound 2] | – | 5746.61 | 0.1908 | 5742.06 | 0.1179 | 6326.04 | 0.1798 | 3724.28 | −0.3983 | 3650.69 | 0.09458 | 3706.64 | −0.1239 | 4409.6 | −0.002033 | 2253.74 | −0.4338
4 | (−) 5-((((trans)-2-(4-(benzyloxy)phenyl)cyclopropyl)amino)methyl)-1,3,4-oxadiazol-2-amine [Compound 1] | – | 5008.03 | −0.03216 | 3965.09 | −0.309 | 5060.07 | 0.03544 | 5579.26 | 0.0424 | 3553.16 | −0.1852 | 2424.61 | −0.5964 | 2911.46 | −0.1102 | 3667.46 | −0.02579
